Columns and labels:
[1] = biological target: Serine/threonine-protein kinase pim-2 (Homo sapiens, UniProt Q9P1W9); test: Selectivity interaction (Kinase screening (Nanosyn)) EUB0000604a PIM2
[2] = biological target: 3',5'-cyclic-AMP phosphodiesterase 4B (Homo sapiens) (UniProt Q07343); test: Selectivity interaction (Panel of kinases, GPCRs, ion channels and transporters (enzymatic assay)) EUB0000266bCl PDE4B
[3] = biological target: T1, Mitogen-activated protein kinase kinase kinase 19 (Homo sapiens) (UniProt Q56UN5); test: Selectivity interaction (KinomeScan (DiscoverX)) EUB0001079a MAP3K19; conditions: at 1 µM
T1 sequence (whole entry): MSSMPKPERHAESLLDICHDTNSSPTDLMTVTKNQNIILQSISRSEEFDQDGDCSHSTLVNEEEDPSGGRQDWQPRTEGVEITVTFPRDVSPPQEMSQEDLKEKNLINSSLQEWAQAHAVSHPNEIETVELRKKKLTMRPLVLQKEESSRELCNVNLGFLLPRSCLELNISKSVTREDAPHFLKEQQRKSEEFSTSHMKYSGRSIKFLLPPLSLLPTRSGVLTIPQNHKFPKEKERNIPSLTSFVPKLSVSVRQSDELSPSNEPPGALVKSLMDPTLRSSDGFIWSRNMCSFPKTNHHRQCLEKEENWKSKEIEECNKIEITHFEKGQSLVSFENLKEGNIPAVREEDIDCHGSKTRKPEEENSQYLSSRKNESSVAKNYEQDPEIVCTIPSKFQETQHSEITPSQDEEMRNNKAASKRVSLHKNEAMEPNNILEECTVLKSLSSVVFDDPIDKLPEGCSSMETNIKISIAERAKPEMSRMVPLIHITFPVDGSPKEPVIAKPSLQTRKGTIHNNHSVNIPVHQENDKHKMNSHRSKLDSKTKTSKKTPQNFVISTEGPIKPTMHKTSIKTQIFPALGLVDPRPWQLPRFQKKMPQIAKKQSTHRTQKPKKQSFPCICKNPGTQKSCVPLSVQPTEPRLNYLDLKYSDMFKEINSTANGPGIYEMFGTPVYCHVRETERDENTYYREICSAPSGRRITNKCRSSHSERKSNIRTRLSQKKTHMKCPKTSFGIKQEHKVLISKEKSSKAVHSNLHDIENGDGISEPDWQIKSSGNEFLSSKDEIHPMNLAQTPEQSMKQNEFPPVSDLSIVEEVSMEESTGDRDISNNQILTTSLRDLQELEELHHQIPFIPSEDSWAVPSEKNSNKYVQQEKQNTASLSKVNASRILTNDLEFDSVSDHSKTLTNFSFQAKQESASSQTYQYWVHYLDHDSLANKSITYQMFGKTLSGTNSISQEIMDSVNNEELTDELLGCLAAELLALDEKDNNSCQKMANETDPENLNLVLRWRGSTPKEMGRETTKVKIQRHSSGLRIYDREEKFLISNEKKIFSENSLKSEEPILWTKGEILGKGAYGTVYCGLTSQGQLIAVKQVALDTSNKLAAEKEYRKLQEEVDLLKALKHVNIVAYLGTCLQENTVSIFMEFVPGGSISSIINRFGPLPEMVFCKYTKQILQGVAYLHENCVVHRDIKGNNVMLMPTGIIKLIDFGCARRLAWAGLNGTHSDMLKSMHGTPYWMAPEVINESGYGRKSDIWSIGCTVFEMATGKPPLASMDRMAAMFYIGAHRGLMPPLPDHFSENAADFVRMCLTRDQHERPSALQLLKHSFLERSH

Mu-type opioid receptor = Mu-type opioid receptor (Homo sapiens, UniProt P35372); test: Selectivity interaction (GPCR panel (PDSP screen)) EUB0001079a OPRM1; conditions: at 10 µM
[4] = biological target: T2, Serine/threonine-protein kinase STK11 (Homo sapiens) (UniProt Q15831); test: Selectivity interaction (KinomeScan (DiscoverX)) EUB0001079a STK11; conditions: at 1 µM
T2 sequence (whole entry): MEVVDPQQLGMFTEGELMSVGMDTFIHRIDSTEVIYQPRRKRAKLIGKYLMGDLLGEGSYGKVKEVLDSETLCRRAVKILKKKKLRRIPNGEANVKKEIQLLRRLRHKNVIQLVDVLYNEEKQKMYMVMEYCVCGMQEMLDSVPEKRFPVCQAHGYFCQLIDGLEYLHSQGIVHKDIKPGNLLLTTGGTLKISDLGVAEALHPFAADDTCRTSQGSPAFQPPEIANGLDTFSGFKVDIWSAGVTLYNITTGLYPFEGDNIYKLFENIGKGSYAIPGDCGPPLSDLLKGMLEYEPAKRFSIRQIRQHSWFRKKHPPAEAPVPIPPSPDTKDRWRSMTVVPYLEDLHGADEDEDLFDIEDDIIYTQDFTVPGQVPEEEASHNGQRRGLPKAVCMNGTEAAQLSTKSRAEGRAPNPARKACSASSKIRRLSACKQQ

[5] = biological target: T3, Casein kinase I isoform alpha-like (Homo sapiens) (UniProt Q8N752); test: Selectivity interaction (KinomeScan (DiscoverX)) EUB0000655a CSNK1A1L; conditions: at 10 µM
T3 sequence (whole entry): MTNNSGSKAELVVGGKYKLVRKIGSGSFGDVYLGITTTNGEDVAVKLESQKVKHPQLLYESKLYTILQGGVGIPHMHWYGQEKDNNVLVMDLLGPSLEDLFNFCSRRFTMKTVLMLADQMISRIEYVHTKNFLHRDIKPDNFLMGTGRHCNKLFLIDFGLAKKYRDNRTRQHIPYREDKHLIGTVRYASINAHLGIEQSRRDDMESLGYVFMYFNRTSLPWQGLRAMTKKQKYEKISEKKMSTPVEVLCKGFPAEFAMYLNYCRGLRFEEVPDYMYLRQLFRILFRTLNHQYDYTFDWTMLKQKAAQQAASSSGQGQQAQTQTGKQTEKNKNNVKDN

[6] = biological target: T4, Megakaryocyte-associated tyrosine-protein kinase (Homo sapiens) (UniProt P42679); test: Selectivity interaction (SelectScreen profiling (Invitrogen)) EUB0000607a MATK; conditions: at 2 µM
T4 sequence (whole entry): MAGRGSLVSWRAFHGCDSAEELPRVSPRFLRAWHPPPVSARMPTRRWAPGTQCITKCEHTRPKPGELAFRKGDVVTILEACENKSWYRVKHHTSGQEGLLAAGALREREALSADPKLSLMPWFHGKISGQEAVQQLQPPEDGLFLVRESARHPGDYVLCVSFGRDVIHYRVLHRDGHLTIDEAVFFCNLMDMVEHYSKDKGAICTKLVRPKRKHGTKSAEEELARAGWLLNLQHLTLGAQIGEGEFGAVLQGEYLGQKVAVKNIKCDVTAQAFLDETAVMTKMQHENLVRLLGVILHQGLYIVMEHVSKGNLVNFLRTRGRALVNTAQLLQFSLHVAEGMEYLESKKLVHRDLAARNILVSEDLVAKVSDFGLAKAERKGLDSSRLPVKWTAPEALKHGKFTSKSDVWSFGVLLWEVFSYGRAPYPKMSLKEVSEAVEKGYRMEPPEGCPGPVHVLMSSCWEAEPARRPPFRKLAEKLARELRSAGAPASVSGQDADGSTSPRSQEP

Serine/threonine-protein kinase pim-2, sequence (Q9P1W9 whole entry, looked up): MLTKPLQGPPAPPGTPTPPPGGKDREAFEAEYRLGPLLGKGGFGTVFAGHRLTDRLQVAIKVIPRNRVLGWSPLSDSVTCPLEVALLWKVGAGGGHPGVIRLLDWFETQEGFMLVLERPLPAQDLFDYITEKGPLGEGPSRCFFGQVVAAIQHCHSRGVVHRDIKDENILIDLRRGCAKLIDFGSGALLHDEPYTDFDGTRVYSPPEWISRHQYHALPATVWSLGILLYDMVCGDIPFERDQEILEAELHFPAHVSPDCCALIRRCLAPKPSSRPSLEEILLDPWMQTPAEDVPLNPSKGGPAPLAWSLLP
3',5'-cyclic-AMP phosphodiesterase 4B (Homo sapiens), sequence (Q07343 whole entry): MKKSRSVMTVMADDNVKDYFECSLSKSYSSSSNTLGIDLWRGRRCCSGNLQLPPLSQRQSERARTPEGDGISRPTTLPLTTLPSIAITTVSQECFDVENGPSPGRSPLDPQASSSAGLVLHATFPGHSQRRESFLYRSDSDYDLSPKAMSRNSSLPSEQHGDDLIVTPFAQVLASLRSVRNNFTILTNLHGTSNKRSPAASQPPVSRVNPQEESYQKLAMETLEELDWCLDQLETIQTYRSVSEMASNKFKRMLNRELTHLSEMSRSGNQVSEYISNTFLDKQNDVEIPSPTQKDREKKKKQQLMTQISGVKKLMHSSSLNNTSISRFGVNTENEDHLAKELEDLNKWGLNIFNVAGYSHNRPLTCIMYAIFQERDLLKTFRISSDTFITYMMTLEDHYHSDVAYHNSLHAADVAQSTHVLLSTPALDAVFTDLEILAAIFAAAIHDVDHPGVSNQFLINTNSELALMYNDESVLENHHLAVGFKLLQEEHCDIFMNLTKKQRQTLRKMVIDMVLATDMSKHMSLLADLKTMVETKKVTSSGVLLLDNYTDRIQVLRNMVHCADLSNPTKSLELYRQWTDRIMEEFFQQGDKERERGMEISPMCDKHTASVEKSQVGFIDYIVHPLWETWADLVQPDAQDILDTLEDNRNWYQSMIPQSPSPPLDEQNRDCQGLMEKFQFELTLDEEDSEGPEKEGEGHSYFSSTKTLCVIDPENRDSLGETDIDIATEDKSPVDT
Mu-type opioid receptor, sequence (P35372 whole entry): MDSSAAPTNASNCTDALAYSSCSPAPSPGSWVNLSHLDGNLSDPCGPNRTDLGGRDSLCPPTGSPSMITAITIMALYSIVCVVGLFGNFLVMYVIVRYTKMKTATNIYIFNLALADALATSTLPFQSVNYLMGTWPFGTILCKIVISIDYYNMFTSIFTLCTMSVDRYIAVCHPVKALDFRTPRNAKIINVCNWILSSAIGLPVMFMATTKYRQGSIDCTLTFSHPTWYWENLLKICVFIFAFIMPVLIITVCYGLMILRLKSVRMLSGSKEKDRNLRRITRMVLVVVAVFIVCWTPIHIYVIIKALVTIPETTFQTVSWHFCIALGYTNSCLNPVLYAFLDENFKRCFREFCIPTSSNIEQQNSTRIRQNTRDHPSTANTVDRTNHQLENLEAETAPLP

Cc1cnc(Nc2ccc(F)cc2Cl)nc1-c1c[nH]c(C(=O)N[C@H](CO)c2cccc(Cl)c2)c1 showed a % of inhibition [1] of 3%.
CCn1c(-c2nc3cc(C(=O)N4CCCC(N)C4)ccc3n2C)cc2ccccc21 (configuration not stated) showed a pXC50 [2] of 4.6 M.
Work on Nc1cnc(N2CCc3cc(S(=O)(=O)Nc4c(F)cc(Cl)cc4F)cc(N4CCCC4=O)c32)nc1 [TP-020n] yielded a % of control [3] of 100%, a % of inhibition (Mu-type opioid receptor) of -1.31% and a % of control [4] of 100%.
CN(C)CCOc1ccc(-c2nc(-c3ccncc3)c(-c3ccc4c(c3)CC/C4=N\O)[nH]2)cc1 was tested, and the % of control [5] was 88%.
Molecule CNC(=O)Nc1ccc(-c2nc(N3CC4CCC(C3)O4)c3cnn(C4CCC5(CC4)OCCO5)c3n2)cc1 has a % of inhibition [6] of 2%.

Reference: ChEMBL document CHEMBL5465560, “Selectivity Literature for EUbOPEN Chemogenomic Library” (2024)
